Data: US20240034726A9, “MAP KINASE KINASE (MKK7) INHIBITORS AND USES THEREOF” (Dana-Farber Cancer Institute, Inc., priority 2020, published 2024)

Columns and labels:
Experiment in all cases: KINOMEscan
Format in all cases: binding
EGFR(T790M) = target: T1, EGFR(T790M) (Homo sapiens, UniProt P00533, T790M)
T1 construct: purchased KINOMEscan (Ambit)
Source text: (§1) The activity of the compounds was confirmed using Compound S-(I-1) in the KINOMEscan screening platform.

EGFR(L861Q) = target: T2, EGFR(L861Q) (Homo sapiens, UniProt P00533, L861Q)
T2 construct: purchased KINOMEscan (Ambit)
Source text: as §1

ULK1 = target: T3, ULK1 (Homo sapiens, UniProt O75385)
T3 construct: purchased KINOMEscan (Ambit) screening platform
Source text: as §1

EGFR = target: T4, EGFR (Homo sapiens, UniProt P00533)
T4 construct: purchased KINOMEscan (Ambit)
Source text: as §1

CDK8 = target: T5, CDK8 (Homo sapiens, UniProt P49336)
T5 construct: purchased KINOMEscan (Ambit)
Source text: as §1

QSK = target: T6, QSK (Homo sapiens, UniProt Q9Y2K2)
T6 construct: KINOMEscan (Ambit)
Source text: as §1

MET(Y1235D) = target: T7, MET(Y1235D) (Homo sapiens, UniProt P08581, Y1235D)
T7 construct: purchased KINOMEscan screening platform (Ambit)
Source text: as §1

[1] = target: T8, EGFR(L747-S752del, P753S) (Homo sapiens, UniProt P00533, DEL747-752/P753S)
T8 construct: purchased KINOMEscan (Ambit)
Source text: as §1

MST3 = target: T9, MST3 (Homo sapiens, UniProt Q9Y6E0)
T9 construct: purchased KINOMEscan screening platform (Ambit)
T9 sequence (Q9Y6E0 whole entry): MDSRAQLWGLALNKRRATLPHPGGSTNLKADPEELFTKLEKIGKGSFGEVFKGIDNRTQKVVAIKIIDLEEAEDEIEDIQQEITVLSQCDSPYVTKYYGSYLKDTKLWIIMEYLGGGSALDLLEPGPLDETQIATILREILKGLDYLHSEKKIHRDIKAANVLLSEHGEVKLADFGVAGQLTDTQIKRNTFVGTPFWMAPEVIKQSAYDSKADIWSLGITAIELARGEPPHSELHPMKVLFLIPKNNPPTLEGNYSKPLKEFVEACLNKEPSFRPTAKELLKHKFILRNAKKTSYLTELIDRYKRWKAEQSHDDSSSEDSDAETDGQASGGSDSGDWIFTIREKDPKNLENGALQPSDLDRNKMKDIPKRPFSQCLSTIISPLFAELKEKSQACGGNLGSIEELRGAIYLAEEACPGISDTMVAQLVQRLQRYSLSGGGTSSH
Source text: as §1

MLK3 = target: T10, MLK3 (Homo sapiens, UniProt Q16584)
T10 construct: purchased KINOMEscan screening platform (Ambit)
Source text: as §1

JNK3 = target: T11, JNK3 (Homo sapiens, UniProt P53779)
T11 construct: purchased KINOMEscan (Ambit) screening platform
Source text: as §1

[2] = target: T12, RSK4(Kin.Dom.1-N-terminal) (Homo sapiens, UniProt Q9UK32)
T12 construct: Kin.Dom.1; purchased KINOMEscan (Ambit)
Source text: as §1

DLK = target: T13, DLK (Homo sapiens, UniProt Q12852)
T13 construct: purchased KINOMEscan (Ambit)
Source text: as §1

SIK = target: T14, SIK (Homo sapiens, UniProt P57059)
T14 construct: purchased KINOMEscan (Ambit)
Source text: as §1

EGFR(L858R, T790M) = target: T15, EGFR(L858R, T790M) (Homo sapiens, UniProt P00533, L858R/T790M)
T15 construct: purchased KINOMEscan (Ambit)
Source text: as §1

MET = target: T16, MET (Homo sapiens, UniProt P08581)
T16 construct: purchased KINOMEscan screening platform (Ambit)
Source text: as §1

CDC2L5 = target: T17, CDC2L5 (Homo sapiens, UniProt Q14004)
T17 construct: purchased KINOMEscan (Ambit)
Source text: as §1

EGFR(G719C) = target: T18, EGFR(G719C) (Homo sapiens, UniProt P00533, G719C)
T18 construct: purchased KINOMEscan (Ambit)
Source text: as §1

BTK = target: T19, BTK (Homo sapiens, UniProt Q06187)
T19 construct: purchased KINOMEscan (Ambit)
T19 sequence (Q06187 whole entry): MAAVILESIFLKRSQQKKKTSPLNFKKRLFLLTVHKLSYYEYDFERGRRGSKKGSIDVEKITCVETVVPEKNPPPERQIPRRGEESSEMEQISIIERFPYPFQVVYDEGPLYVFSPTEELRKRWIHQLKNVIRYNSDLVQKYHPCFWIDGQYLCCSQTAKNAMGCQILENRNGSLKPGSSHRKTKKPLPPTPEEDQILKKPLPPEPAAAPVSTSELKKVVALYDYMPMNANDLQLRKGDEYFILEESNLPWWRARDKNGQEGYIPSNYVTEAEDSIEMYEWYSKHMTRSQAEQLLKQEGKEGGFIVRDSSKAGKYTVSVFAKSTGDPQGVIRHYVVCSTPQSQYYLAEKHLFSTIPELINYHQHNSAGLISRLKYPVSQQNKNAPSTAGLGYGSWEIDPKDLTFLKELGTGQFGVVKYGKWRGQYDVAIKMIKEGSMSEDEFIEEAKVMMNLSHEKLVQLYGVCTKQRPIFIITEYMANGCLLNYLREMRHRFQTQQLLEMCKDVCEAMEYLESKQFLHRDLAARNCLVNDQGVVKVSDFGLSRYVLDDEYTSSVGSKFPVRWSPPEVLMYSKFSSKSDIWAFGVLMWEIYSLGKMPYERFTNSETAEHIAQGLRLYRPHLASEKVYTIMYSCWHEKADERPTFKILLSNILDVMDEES
Source text: as §1

LZK = target: T20, LZK (Homo sapiens, UniProt O43283)
T20 construct: purchased KINOMEscan screening platform (Ambit)
T20 sequence (O43283 whole entry): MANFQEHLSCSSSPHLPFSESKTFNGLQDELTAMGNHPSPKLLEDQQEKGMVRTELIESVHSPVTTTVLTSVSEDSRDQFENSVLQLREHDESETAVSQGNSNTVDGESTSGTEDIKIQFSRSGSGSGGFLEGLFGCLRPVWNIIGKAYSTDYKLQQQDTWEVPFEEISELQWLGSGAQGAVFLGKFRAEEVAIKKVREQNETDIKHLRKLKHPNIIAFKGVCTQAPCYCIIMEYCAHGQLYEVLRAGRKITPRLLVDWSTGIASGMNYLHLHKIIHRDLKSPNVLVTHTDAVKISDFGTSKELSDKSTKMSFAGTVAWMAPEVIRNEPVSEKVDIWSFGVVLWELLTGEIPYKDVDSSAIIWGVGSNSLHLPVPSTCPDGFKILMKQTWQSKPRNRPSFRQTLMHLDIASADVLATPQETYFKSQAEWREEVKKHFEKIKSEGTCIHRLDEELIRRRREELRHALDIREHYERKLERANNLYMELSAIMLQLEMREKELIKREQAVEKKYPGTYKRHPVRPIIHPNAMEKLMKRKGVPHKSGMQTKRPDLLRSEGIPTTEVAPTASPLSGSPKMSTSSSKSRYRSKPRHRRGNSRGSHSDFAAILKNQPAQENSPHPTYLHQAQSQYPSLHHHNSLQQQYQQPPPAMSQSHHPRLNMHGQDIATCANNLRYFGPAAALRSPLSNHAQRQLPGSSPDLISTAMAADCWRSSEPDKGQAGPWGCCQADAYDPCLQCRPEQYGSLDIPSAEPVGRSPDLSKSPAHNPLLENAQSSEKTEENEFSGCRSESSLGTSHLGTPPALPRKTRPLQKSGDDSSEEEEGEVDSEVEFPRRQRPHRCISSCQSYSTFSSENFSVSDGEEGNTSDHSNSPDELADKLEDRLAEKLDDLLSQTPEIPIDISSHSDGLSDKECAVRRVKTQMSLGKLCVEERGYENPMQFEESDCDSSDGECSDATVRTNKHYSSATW
Source text: as §1

LATS2 = target: T21, LATS2 (Homo sapiens, UniProt Q9NRM7)
T21 construct: purchased KINOMEscan (Ambit) screening platform
Source text: as §1

JNK1 = target: T22, JNK1 (Homo sapiens, UniProt P45983)
T22 construct: purchased KINOMEscan (Ambit) screening platform
Source text: as §1

MARK4 = target: T23, MARK4 (Homo sapiens, UniProt Q96L34)
T23 construct: purchased KINOMEscan screening platform (Ambit)
Source text: as §1

SNARK = target: T24, SNARK (Homo sapiens, UniProt Q9H093)
T24 construct: purchased KINOMEscan (Ambit)
T24 sequence (Q9H093 whole entry): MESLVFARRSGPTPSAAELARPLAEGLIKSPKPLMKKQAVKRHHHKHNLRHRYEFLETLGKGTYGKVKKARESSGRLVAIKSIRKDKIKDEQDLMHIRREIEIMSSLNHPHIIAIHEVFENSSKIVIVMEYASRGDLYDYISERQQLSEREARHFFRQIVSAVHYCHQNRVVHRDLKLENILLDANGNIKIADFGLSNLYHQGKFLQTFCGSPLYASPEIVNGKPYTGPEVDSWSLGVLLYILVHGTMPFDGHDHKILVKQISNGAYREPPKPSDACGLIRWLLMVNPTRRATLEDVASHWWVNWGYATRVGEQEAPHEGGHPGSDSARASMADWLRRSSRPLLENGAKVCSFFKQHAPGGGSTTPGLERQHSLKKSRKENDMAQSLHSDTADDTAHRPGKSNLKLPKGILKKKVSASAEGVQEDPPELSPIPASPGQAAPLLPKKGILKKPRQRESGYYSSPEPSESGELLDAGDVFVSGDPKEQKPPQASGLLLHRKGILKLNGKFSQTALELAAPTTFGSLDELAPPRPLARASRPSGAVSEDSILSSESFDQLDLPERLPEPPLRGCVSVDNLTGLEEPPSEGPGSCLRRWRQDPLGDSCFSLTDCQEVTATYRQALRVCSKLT
Source text: as §1

EPHA5 = target: T25, EPHA5 (Homo sapiens, UniProt P54756)
T25 construct: purchased KINOMEscan (Ambit)
Source text: as §1

[3] = target: T26, JAK1(JH1domain-catalytic) (Homo sapiens, UniProt P23458)
T26 construct: JAK1(JH1domain); purchased KINOMEscan (Ambit) screening platform
Source text: as §1

EGFR(S752-I759del) = target: T27, EGFR(S752-I759del) (Homo sapiens, UniProt P00533, DEL752-759)
T27 construct: purchased KINOMEscan (Ambit)
Source text: as §1

EGFR(L747-T751del, Sins) = system: EGFR(L747-T751del, Sins)
Source text: as §1

BMPR2 = target: T28, BMPR2 (Homo sapiens, UniProt Q13873)
T28 construct: purchased KINOMEscan (Ambit)
Source text: as §1

CDK3 = target: T29, CDK3 (Homo sapiens, UniProt Q00526)
T29 construct: purchased KINOMEscan (Ambit)
Source text: as §1

SYK = target: T30, SYK (Homo sapiens, UniProt P43405)
T30 construct: purchased KINOMEscan (Ambit)
Source text: as §1

ULK3 = target: T31, ULK3 (Homo sapiens, UniProt Q6PHR2)
T31 construct: purchased KINOMEscan (Ambit) screening platform
Source text: as §1

EGFR(L858R) = target: T32, EGFR(L858R) (Homo sapiens, UniProt P00533, L858R)
T32 construct: purchased KINOMEscan (Ambit)
Source text: as §1

CSNK1G2 = target: T33, CSNK1G2 (Homo sapiens, UniProt P78368)
T33 construct: purchased KINOMEscan (Ambit) screening platform
T33 sequence (P78368 whole entry): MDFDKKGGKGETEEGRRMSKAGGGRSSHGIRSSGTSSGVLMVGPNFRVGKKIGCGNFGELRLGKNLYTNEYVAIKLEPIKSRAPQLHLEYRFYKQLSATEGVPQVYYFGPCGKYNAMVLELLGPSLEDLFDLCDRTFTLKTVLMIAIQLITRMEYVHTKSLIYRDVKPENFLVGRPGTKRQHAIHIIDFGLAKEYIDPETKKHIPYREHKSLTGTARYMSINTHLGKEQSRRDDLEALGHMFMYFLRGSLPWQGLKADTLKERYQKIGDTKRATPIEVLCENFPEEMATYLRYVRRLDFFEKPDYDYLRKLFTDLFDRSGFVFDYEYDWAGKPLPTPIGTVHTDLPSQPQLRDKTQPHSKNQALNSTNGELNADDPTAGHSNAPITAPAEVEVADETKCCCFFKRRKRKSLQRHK
Source text: as §1

CHEK1 = target: T34, CHEK1 (Homo sapiens, UniProt O14757)
T34 construct: purchased KINOMEscan (Ambit) screening platform
Source text: as §1

ACVR2B = target: T35, ACVR2B (Homo sapiens, UniProt Q13705)
T35 construct: purchased KINOMEscan (Ambit)
Source text: as §1

[4] = target: T36, EGFR(L747-E749del, A750P) (Homo sapiens, UniProt P00533, A750P/DEL747-749)
T36 construct: purchased KINOMEscan (Ambit)
Source text: as §1

MET(M1250T) = target: T37, MET(M1250T) (Homo sapiens, UniProt P08581, M1250T)
T37 construct: purchased KINOMEscan screening platform (Ambit)
Source text: as §1

EGFR(G719S) = target: T38, EGFR(G719S) (Homo sapiens, UniProt P00533, G719S)
T38 construct: purchased KINOMEscan (Ambit)
T38 sequence (P00533 25-1210 G719S): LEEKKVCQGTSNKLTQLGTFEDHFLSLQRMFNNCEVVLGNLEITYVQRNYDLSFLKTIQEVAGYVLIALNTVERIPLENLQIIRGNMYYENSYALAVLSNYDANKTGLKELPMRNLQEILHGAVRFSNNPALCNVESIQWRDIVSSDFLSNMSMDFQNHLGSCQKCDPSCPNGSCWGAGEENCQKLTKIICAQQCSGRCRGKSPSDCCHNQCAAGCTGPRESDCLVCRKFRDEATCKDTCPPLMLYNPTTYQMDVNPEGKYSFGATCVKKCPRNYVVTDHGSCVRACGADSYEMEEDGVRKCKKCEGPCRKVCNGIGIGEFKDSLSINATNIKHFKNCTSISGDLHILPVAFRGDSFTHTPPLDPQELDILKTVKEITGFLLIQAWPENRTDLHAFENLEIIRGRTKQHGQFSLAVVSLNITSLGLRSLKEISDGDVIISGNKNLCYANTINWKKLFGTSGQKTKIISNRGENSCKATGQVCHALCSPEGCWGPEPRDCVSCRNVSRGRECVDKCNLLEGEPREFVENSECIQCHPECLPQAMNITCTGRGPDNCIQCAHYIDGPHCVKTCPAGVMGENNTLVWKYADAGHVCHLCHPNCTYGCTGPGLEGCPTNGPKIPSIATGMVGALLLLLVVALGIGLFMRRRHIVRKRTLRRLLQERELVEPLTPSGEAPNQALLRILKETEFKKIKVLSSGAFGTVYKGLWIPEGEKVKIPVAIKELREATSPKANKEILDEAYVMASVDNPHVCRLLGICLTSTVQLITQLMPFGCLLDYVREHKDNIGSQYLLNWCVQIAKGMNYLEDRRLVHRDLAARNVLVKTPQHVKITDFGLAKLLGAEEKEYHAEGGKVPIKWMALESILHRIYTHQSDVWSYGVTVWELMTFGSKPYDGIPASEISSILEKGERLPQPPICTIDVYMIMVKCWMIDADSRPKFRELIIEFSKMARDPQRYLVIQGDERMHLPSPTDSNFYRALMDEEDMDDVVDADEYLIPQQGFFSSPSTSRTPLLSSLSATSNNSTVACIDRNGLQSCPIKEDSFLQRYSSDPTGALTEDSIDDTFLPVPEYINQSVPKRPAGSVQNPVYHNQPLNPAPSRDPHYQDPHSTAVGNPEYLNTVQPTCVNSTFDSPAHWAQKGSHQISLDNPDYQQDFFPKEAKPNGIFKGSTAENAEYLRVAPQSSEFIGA
Source text: as §1

CIT = target: T39, CIT (Homo sapiens, UniProt O14578)
T39 construct: purchased KINOMEscan (Ambit) screening platform
Source text: as §1

p38-alpha = target: T40, p38-alpha (Homo sapiens, UniProt Q16539)
T40 construct: purchased KINOMEscan (Ambit)
Source text: as §1

CDK2 = target: T41, CDK2 (Homo sapiens, UniProt P24941)
T41 construct: purchased KINOMEscan (Ambit)
Source text: as §1

MST1 = target: T42, MST1 (Homo sapiens, UniProt Q13043)
T42 construct: purchased KINOMEscan screening platform (Ambit)
Source text: as §1

PFTK1 = target: T43, PFTK1 (Homo sapiens, UniProt O94921)
T43 construct: purchased KINOMEscan screening platform (Ambit)
T43 sequence (O94921 whole entry): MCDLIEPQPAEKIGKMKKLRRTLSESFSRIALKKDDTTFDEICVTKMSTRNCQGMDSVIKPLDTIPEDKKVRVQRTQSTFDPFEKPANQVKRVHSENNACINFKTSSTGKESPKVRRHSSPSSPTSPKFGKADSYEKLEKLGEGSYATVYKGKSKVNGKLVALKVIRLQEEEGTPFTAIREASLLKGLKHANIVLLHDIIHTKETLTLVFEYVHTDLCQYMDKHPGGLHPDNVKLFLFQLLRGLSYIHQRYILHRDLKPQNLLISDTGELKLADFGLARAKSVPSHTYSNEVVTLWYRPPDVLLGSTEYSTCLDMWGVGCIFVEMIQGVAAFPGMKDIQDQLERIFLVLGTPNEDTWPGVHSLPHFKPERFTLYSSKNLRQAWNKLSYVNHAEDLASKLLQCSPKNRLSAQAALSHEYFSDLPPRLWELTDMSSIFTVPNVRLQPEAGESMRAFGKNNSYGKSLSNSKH
Source text: as §1

[5] = target: T44, RSK4(Kin.Dom.2-C-terminal) (Homo sapiens, UniProt Q9UK32)
T44 construct: Kin.Dom.2; purchased KINOMEscan (Ambit)
Source text: as §1

IRAK4 = target: T45, IRAK4 (Homo sapiens, UniProt Q9NWZ3)
T45 construct: purchased KINOMEscan (Ambit) screening platform
Source text: as §1

[6] = target: T46, JAK2(JH1domain-catalytic) (Homo sapiens, UniProt O60674)
T46 construct: JAK2(JH1domain-; purchased KINOMEscan (Ambit) screening platform
Source text: as §1

PLK2 = target: T47, PLK2 (Homo sapiens, UniProt Q9NYY3)
T47 construct: purchased KINOMEscan (Ambit) screening platform
Source text: as §1

FLT3(ITD) = system: FLT3(ITD)
Source text: as §1

[7] = target: T48, TYK2(JH1domain-catalytic) (Homo sapiens, UniProt P29597)
T48 construct: TYK2(JH1domain); purchased KINOMEscan (Ambit) screening platform
Source text: as §1

MKK7 = target: T49, MKK7 (Homo sapiens, UniProt O14733)
T49 construct: purchased KINOMEscan screening platform (Ambit)
Source text: as §1

PIP5K1C = target: T50, PIP5K1C (Homo sapiens, UniProt O60331)
T50 construct: purchased KINOMEscan (Ambit) screening platform
Source text: as §1

CSNK1G1 = target: T51, CSNK1G1 (Homo sapiens, UniProt Q9HCP0)
T51 construct: purchased KINOMEscan (Ambit) screening platform
Source text: as §1

ARK5 = target: T52, ARK5 (Homo sapiens, UniProt O60285)
T52 construct: purchased KINOMEscan (Ambit)
Source text: as §1

[8] = target: T53, TYK2(JH2domain-pseudokinase) (Homo sapiens, UniProt P29597)
T53 construct: TYK2(JH2domain); purchased KINOMEscan (Ambit) screening platform
Source text: as §1

PRKR = target: T54, PRKR (Homo sapiens, UniProt P19525)
T54 construct: KINOMEscan (Ambit)
Source text: as §1

WNK1 = target: T55, WNK1 (Homo sapiens, UniProt Q9H4A3)
T55 construct: purchased KINOMEscan (Ambit) screening platform
Source text: as §1

JNK2 = target: T56, JNK2 (Homo sapiens, UniProt P45984)
T56 construct: purchased KINOMEscan (Ambit) screening platform
Source text: as §1

PKMYT1 = target: T57, PKMYT1 (Homo sapiens, UniProt Q99640)
T57 construct: purchased KINOMEscan (Ambit) screening platform
Source text: as §1

CSNK1G3 = target: T58, CSNK1G3 (Homo sapiens, UniProt Q9Y6M4)
T58 construct: purchased KINOMEscan (Ambit) screening platform
Source text: as §1

EPHB2 = target: T59, EPHB2 (Homo sapiens, UniProt P29323)
T59 construct: purchased KINOMEscan (Ambit)
Source text: as §1

ITK = target: T60, ITK (Homo sapiens, UniProt Q08881)
T60 construct: purchased KINOMEscan (Ambit) screening platform
Source text: as §1

EGFR(E746-A750del) = target: T61, EGFR(E746-A750del) (Homo sapiens, UniProt P00533, DEL746-750)
T61 construct: purchased KINOMEscan (Ambit)
Source text: as §1

CSK = target: T62, CSK (Homo sapiens, UniProt P41240)
T62 construct: purchased KINOMEscan (Ambit) screening platform
Source text: as §1

[9] = target: T63, JAK1(JH2domain-pseudokinase) (Homo sapiens, UniProt P23458)
T63 construct: JAK1(JH2domain-; purchased KINOMEscan (Ambit) screening platform
T63 sequence (P23458 583-855 limits assumed): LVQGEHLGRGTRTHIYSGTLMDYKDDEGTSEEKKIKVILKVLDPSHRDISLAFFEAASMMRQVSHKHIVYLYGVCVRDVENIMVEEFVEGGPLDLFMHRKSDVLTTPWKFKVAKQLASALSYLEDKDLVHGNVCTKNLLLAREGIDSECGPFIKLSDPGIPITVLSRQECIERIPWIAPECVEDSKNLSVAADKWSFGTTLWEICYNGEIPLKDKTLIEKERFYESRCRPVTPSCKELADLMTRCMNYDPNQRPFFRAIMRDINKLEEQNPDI
Source text: as §1

CDK11 = target: T64, CDK11 (Homo sapiens, UniProt Q9BWU1)
T64 construct: purchased KINOMEscan (Ambit)
Source text: as §1

LOK = target: T65, LOK (Homo sapiens, UniProt O94804)
T65 construct: purchased KINOMEscan (Ambit) screening platform
Source text: as §1

DCAMKL1 = target: T66, DCAMKL1 (Homo sapiens, UniProt O15075)
T66 construct: purchased KINOMEscan (Ambit)
Source text: as §1

MAP4K3 = target: T67, MAP4K3 (Homo sapiens, UniProt Q8IVH8)
T67 construct: purchased KINOMEscan screening platform (Ambit)
Source text: as §1

## C=CC(=O)N1CCC(Nc2nccc(Oc3cc(C(=O)Nc4ccc(CN5CCN(CC)CC5)c(C(F)(F)F)c4)ccc3C)n2)C1 (stereo not drawn) [S-(I-1)]
EGFR(T790M)
  Score: 90
EGFR(L861Q)
  Score: 66
ULK1
  Score: 94
EGFR
  Score: 68
CDK8
  Score: 2.8
QSK
  Score: 87
MET(Y1235D)
  Score: 96
[1]
  Score: 38
MST3
  Score: 88
MLK3
  Score: 97
JNK3
  Score: 52
[2]
  Score: 90
DLK
  Score: 90
SIK
  Score: 87
EGFR(L858R, T790M)
  Score: 94
MET
  Score: 100
CDC2L5
  Score: 65
EGFR(G719C)
  Score: 59
BTK
  Score: 98
LZK
  Score: 100
LATS2
  Score: 100
JNK1
  Score: 28
MARK4
  Score: 100
SNARK
  Score: 100
EPHA5
  Score: 87
[3]
  Score: 62
EGFR(S752-I759del)
  Score: 90
EGFR(L747-T751del, Sins)
  Score: 43
BMPR2
  Score: 100
CDK3
  Score: 56
SYK
  Score: 24
ULK3
  Score: 78
EGFR(L858R)
  Score: 84
CSNK1G2
  Score: 97
CHEK1
  Score: 100
ACVR2B
  Score: 93
[4]
  Score: 52
MET(M1250T)
  Score: 99
EGFR(G719S)
  Score: 81
CIT
  Score: 61
p38-alpha
  Score: 0
CDK2
  Score: 77
MST1
  Score: 100
PFTK1
  Score: 77
[5]
  Score: 91
IRAK4
  Score: 81
[6]
  Score: 84
PLK2
  Score: 89
FLT3(ITD)
  Score: 24
[7]
  Score: 91
MKK7
  Score: 0.9
PIP5K1C
  Score: 52
CSNK1G1
  Score: 91
ARK5
  Score: 83
[8]
  Score: 92
PRKR
  Score: 85
WNK1
  Score: 86
JNK2
  Score: 0.35
PKMYT1
  Score: 89
CSNK1G3
  Score: 92
EPHB2
  Score: 91
ITK
  Score: 98
EGFR(E746-A750del)
  Score: 66
CSK
  Score: 58
[9]
  Score: 100
CDK11
  Score: 0
LOK
  Score: 0.35
DCAMKL1
  Score: 99
MAP4K3
  Score: 93
